“Also recorded” adds a separate entry of the source. Like-named read-outs stand apart in the source and are kept apart here.
Assays:
D3R = D3R (Homo sapiens, UniProt P35462); test: BRET1-based GoA activation assay, D3R; assay type: cell-based; settings: for efficacy type at D3R (in words): GoA BRET; for efficacy type at D3R (in words) / Emax in the Go BRET assay, D3R: HEK293T; for Emax in the Go BRET assay, D3R: dose-response 100 pM to 100 µM
D2R = D2R (Homo sapiens, UniProt P14416); test: BRET1-based GoA activation assay, D2R; assay type: cell-based
[1] = HEK293T, dose-response 100 pM to 100 µM

D3R, sequence (P35462 whole entry): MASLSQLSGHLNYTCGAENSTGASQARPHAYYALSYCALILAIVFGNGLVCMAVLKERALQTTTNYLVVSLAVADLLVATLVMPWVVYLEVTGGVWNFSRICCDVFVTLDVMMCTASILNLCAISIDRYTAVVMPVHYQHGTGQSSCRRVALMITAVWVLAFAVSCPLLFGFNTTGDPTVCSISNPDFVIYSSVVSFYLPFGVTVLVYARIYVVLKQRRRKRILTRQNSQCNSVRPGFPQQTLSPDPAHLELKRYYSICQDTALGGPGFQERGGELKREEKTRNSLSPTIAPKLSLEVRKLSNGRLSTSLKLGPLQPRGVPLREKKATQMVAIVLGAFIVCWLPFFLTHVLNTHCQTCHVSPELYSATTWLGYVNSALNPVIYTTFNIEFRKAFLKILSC
D2R, sequence (P14416 1-414 isoform P14416-2): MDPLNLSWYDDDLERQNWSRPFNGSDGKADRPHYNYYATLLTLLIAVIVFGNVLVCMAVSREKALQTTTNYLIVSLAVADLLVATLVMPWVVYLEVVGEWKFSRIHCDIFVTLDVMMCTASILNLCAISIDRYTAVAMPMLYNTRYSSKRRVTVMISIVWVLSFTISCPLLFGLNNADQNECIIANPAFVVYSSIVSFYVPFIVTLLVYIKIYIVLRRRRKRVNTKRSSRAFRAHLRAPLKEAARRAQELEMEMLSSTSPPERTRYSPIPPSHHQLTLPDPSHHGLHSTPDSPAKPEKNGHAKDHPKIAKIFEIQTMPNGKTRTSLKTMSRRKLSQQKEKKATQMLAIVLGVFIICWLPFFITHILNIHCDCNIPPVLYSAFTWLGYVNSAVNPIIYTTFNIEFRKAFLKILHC

| SMILES | efficacy type at D3R (in words) (D3R) | Emax in the Go BRET assay, D3R (D3R) | also measured |
| --- | --- | --- | --- |
| O=C(NCC[C@@H](O)CN1CCN(c2cccc(Cl)c2Cl)CC1)c1cc2ccccc2[nH]1 [Compound 2] | weak partial agonism |  |  |
| CCc1cc(Cl)c(OC)c(C(=O)NC[C@@H]2CCCN2CC)c1O [Compound 3, eticlopride, reference compound] | inverse agonist |  |  |
| O=C(NCCCCN1CCN(c2cccc(Cl)c2Cl)CC1)c1cc2ccccc2[nH]1 [Compound 4, N-(4-(4-(2,3-dichlorophenyl)piperazin-1-yl)butyl)-1H-indole-2-carboxamide] | weak partial agonism | 16.00 % of the Emax of dopamine | efficacy type at D2R (in words) (D2R; GoA BRET, HEK293T): weak partial agonism |
| COc1ccccc1N1CCN(CCCCNC(=O)c2cc3ccccc3[nH]2)CC1 [Compound 5] | weak partial agonism | 8.38 % of the Emax of dopamine | efficacy type at D2R (in words) (D2R; GoA BRET, HEK293T): weak partial agonism; Emax in the Go BRET assay, D2R (D2R; [1]): 13.65 % of the Emax of dopamine |
| CCN1CCCC1CNC(=O)c1cc(S(N)(=O)=O)ccc1OC (stereo not shown) [Compound 7, sulpiride, reference compound] | inverse agonist | −6.83 % of the Emax of dopamine | shift of dopamine dose-response curve at D3R (D3R; sulpiride 100 nM): dramatically right-shifted the potency of dopamine; efficacy type at D2R (in words) (D2R; GoA BRET, HEK293T): inverse agonist; Emax in the Go BRET assay, D2R (D2R; [1]): −6.26 % of the Emax of dopamine; shift of dopamine dose-response curve at D2R (D2R; sulpiride 100 nM): dramatically right-shifted the potency of dopamine |
| Clc1cccc(N2CCNCC2)c1Cl [Compound 8, 2,3-diCl-4-phenylpiperazine] | substantial partial agonism | 57.27 % of the Emax of dopamine | efficacy type at D2R (in words) (D2R; GoA BRET, HEK293T): substantial partial agonism; Emax in the Go BRET assay, D2R (D2R; [1]): 40.03 % of the Emax of dopamine |
| COc1ccccc1N1CCNCC1 [Compound 9, 2-OCH3-4-phenylpiperazine] | only minimal efficacy | 6.27 % of the Emax of dopamine | Emax in the Go BRET assay, D2R (D2R): 14.02 % of the Emax of dopamine; efficacy type at D2R (in words) (D2R): only minimal efficacy |
| CN1CCN(c2cccc(Cl)c2Cl)CC1 [Compound 10, 1-(2,3-Dichlorophenyl)-4-methylpiperazine] |  | 37.53 % of the Emax of dopamine |  |
| COc1ccccc1N1CCN(C)CC1 [Compound 11, 1-(2-Methoxyphenyl)-4-methylpiperazine] |  | 7.11 % of the Emax of dopamine |  |
| OCCN1CCN(c2cccc(Cl)c2Cl)CC1 [Compound 12, 2-(4-(2,3-Dichlorophenyl)piperazin-1-yl)ethanol] |  | 21.08 % of the Emax of dopamine |  |
| CCCN1CCN(c2cccc(Cl)c2Cl)CC1 [Compound 13, 1-(2,3-Dichlorophenyl)-4-propylpiperazine] |  | 17.53 % of the Emax of dopamine |  |
| CCCCN1CCN(c2cccc(Cl)c2Cl)CC1 [Compound 14, 1-Butyl-4-(2,3-dichlorophenyl)piperazine] |  | 14.13 % of the Emax of dopamine |  |
| CCCCN1CCN(c2ccccc2OC)CC1 [Compound 15, 1-Butyl-4-(2-methoxyphenyl)piperazine] |  | 9.40 % of the Emax of dopamine |  |
| CCC(=O)NCCCCN1CCN(c2cccc(Cl)c2Cl)CC1 [Compound 16] |  | 22.32 % of the Emax of dopamine |  |
| CCC(=O)NCCCCN1CCN(c2ccccc2OC)CC1 [Compound 17] |  | 7.37 % of the Emax of dopamine |  |
| CCCCNC(=O)c1cc2ccccc2[nH]1 [Compound 18, N-Butyl-1H-indole-2-carboxamide] | no activity; also recorded: failed to activate | −0.65 % of the Emax of dopamine |  |
| NCCc1ccc(O)c(O)c1 [dopamine, reference compound] |  |  | efficacy type at D2R (in words) (D2R): full agonists |
